Experimental data as given in patent publication US6716828B1, “Compounds, methods and pharmaceutical compositions for treating cellular damage, such as neural or cardiovascular tissue damage” (Guilford Pharmaceuticals, Inc., priority 1999, dated 2004).

Key:
PARP = PARP (Homo sapiens, UniProt P09874); settings: read-out: IC50 for inhibiting PARP; reported by Suto et al.; cited from earlier work
male Long-Evans rats = assay: Focal cerebral ischemia (right distal MCA cauterization with bilateral temporary CCA occlusion); format: in vivo; settings: for damaged volume (infarct volume): mean±SD
Protocol: Focal cerebral ischemia is produced by cauterization of the right distal MCA (middle cerebral artery) with bilateral temporary common carotid artery occlusion in male Long-Evans rats for 90 minutes. All procedures performed on the animals are approved by the University Institutional Animal Care and Use Committee of the University of Pennsylvania. A total of 42 rats (weights: 230-340 g) obtained from Charles River were used in this study. The animals fasted overnight with free access to water prior to the surgical procedure.
Two hours prior to MCA occlusion, varying amounts (control, n=14; 5 mg/kg, n=7; 10 mg/kg, n=7; 20 mg/kg, n=7; and 40 mg/kg, n=7) of the compound, 3,4-dihydro-5-[4-(1-piperidinyl)-butoxy]-1(2H)-isoquinolinone (“DPQ”) were dissolved in dimethyl sulfoxide (DMSO) using a sonicator. A volume of 1.28 ml/kg of the resulting solution was injected intraperiotoneally into fourteen rats.
The rats were then anesthetized with halothane (4% for induction and 0.8%-[…] for the surgical procedure) in a mixture of 70% nitrous oxide and 30% oxygen. The body temperature was monitored by a rectal probe and maintained at 37.5±0.5° C. with a heating blanket regulated by a homethermic blanket control unit (Harvard Apparatus Limited, Kent, U.K.). A catheter (PE-50) was placed into the tail artery, and arterial pressure was continuously monitored and recorded on a Grass polygraph recorder (Model 7D, Grass Instruments, Quincy, Mass.). Samples for blood gas analysis (arterial pH, PaO2 and PaCO2) were also taken from the tail artery catheter and measured with a blood gas analyzer (ABL 30, Radiometer, Copenhagen, Denmark). Arterial blood samples were obtained 30 minutes after MCA occlusion.
The head of the animal was positioned in a stereotaxic frame, and a right parietal incision between the right lateral canthus and the external auditory meatus was made. Using a dental drill constantly cooled with saline, a 3 mm burr hole was prepared over the cortex supplied by the right MCA. 4 mm lateral to the sagittal suture and 5 mm caudal to the coronal suture. The dura mater and a thin inner bone layer were kept, care being taken to position the probe over a tissue area devoid of large blood vessels. The flow probe (tip diameter of 1 mm, fiber separation of 0.25 mm) was lowered to the bottom of the cranial burr hole using a micromanipulator. The probe was held stationary by a probe holder secured to the skull with dental cement. The microvascular blood flow in the right parietal cortex was continuously monitored with a laser Doppler flowmeter (FloLab, Moor, Devon, U.K., and Periflux 4001, Perimed, Stockholm, Sweden).
Focal cerebral ischemia was produced by cauterization of the distal portion of the right MCA with bilateral temporary common caroud artery (CCA) occlusion by the procedure of Chen et al., “A Model of Focal Ischemic Stroke in the Rat: Reproducible Extensive Cortical Infarction”, Stroke 17:738-43 (1986) and/or Liu et al., “Polyethylene Glycol-conjugated Superoxide Dismutase and Catalase Reduce Ischemic Brain Injury”, Am. J. Physiol. 256:H589-93 (1989), both of which are hereby incorporated by reference.
Specifically, bilateral CCA's were isolated, and loops made from polyethylene (PE-10) catheter were carefully passed around the CCA's for later remote occlusion. […]

PARP, sequence (P09874 whole entry): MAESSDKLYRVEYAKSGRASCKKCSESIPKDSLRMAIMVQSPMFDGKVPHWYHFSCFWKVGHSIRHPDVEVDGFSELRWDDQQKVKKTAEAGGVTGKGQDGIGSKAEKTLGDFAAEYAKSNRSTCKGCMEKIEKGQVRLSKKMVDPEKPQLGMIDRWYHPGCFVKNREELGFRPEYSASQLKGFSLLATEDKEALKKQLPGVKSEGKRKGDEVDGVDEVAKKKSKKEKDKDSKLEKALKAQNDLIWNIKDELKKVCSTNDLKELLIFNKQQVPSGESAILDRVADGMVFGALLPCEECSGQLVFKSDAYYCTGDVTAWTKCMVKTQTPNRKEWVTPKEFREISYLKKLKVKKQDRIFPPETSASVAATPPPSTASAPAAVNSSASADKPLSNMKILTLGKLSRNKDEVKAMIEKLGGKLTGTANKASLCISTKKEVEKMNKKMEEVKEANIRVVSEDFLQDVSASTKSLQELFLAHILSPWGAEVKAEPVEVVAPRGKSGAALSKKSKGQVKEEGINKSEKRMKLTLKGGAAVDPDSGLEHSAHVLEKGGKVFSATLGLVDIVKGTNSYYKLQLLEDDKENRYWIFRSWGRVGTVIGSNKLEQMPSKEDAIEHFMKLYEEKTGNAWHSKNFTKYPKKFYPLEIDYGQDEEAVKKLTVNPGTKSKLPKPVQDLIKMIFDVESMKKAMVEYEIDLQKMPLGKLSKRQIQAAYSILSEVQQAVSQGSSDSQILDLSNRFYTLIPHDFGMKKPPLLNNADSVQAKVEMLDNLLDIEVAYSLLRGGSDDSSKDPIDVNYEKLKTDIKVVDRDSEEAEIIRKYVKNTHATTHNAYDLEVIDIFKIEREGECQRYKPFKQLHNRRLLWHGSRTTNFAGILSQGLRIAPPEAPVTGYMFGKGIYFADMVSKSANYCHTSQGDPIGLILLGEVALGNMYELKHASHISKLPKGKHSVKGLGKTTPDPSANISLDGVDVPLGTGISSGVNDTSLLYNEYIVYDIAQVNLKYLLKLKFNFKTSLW

Compound: O=C1NCCc2c(OCCCCN3CCCCC3)cccc21 [DPQ, 3,4-dihydro-5-[4-(1-piperidinyl)-butoxy]-1(2H)-isoquinolinone]
- IC50 (PARP): 10 nM
- damaged volume (infarct volume) (male Long-Evans rats; 5 mg/kg i.p. 2 h before and 2 h after MCA occlusion, p<0.001 vs control): 106.7±23.2 mm^3
- damaged volume (infarct volume) (male Long-Evans rats; 10 mg/kg i.p. 2 h before and 2 h after MCA occlusion, p<0.001 vs control): 76.4±16.8 mm^3
- damaged volume (infarct volume) (male Long-Evans rats; 20 mg/kg i.p. 2 h before and 2 h after MCA occlusion, p<0.01 vs control): 110.2±42.0 mm^3
- damaged volume (infarct volume) (male Long-Evans rats; 40 mg/kg i.p. 2 h before and 2 h after MCA occlusion, not significant vs control): 135.6±44.8 mm^3
- infarct volume, overall effect of in vivo administration (male Long-Evans rats; focal cerebral ischemia model in the rat): substantial reduction in infarct volume
